According to patent US20180353462A1, “[…] AGENTS […] FLAVONOID DERIVATIVES TARGETING KINASES, SIRTUINS AND ONCOGENIC AGENTS FOR THE TREATMENT OF CANCERS” (priority 2015, published 2018):

How the values were obtained:
FLT3(D835V) = target: T1, FLT3(D835V) (Homo sapiens, UniProt P36888, D835V); assay: Kinase competition binding assay, FLT3(D835V); conditions: Table 1 kinase panel
T1 construct: made in house
T1 sequence (P36888 27-993 D835V): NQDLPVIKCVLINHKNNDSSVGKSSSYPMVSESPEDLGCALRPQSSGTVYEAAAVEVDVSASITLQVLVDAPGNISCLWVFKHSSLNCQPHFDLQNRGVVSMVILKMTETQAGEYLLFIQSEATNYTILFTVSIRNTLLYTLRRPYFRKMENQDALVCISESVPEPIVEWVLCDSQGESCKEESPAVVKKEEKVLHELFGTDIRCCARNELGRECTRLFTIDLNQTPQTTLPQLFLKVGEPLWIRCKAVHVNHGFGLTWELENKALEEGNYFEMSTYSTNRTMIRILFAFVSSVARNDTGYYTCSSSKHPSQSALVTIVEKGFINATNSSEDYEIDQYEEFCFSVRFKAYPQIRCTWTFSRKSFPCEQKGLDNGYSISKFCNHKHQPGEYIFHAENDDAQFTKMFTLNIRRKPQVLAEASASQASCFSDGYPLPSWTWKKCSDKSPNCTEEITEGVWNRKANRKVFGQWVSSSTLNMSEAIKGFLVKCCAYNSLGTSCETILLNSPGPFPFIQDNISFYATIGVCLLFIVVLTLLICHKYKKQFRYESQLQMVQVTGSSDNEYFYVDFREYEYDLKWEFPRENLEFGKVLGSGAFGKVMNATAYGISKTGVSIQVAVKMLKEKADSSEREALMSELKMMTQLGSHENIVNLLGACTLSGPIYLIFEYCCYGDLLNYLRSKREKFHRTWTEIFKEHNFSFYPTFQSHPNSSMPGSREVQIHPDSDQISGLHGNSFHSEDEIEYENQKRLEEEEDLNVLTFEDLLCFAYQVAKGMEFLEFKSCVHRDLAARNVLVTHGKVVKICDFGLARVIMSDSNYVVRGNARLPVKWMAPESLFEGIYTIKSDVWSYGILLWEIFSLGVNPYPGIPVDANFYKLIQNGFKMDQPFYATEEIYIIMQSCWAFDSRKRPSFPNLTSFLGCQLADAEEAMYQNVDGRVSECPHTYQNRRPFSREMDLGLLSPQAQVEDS
Procedure: (§1) Cannabis flavonoids and their analogs were subjected to kinase inhibition assay. The compounds were first screened at a single concentration of 10 μM in the primary assay. […]. To determine the kd or IC50 values, competition binding assays were established, authenticated and executed as described previously. Fabian et al., “A Small Molecule-Kinase Interaction Map For Clinical Kinase Inhibitors.”, Nat Biotechnol, 23(3):329-36, Epub (2005). See also, Karaman et al., “A Quantitative Analysis Of Kinase Inhibitor Selectivity”, Nat. Biotechnol. […] For most assays, kinases were fused to T7 phage strains (Fabian, supra) and for the other assays, kinases were produced in HEK-293 cells after which they were tagged with DNA for quantitative PCR detection. In general, full-length constructs were used for small, single domain kinases, and catalytic domain constructs for large multi-domain kinases. The binding assays utilized streptavidin-coated magnetic beads treated with biotinylated small molecule ligands for 30 minutes at room temperature which generated affinity resins for the kinase assays. The liganded beads were blocked with excess biotin and washed with blocking buffer (SeaBlock (Pierce), 1% BSA, 0.05% Tween 20, 1 mM DTT) to remove unbound ligand and to reduce non-specific phage binding. […] Test compounds were prepared as 40× stocks in 100% DMSO and diluted directly into the assay (Final DMSO concentration=2.5%). All reactions were performed in polypropylene 384-well plates in a final volume of 0.04 ml. […] The beads were then re-suspended in elution buffer (1×PBS, 0.05% Tween 20, 0.5 μM non-biotinylated affinity ligand) and incubated at room temperature with shaking for 30 minutes. The kinase concentration in the eluates was measured by quantitative PCR. An illustration of the kinase interaction process is presented below. Kd/IC50 values were determined using a standard dose response curve using the hill equation. Curves were fitted using a non-linear least square fit with the Levenberg-Marquardt algorithm.
(§2) The compound(s) were screened at 10 μM and results for primary screen binding interactions are reported as ‘% Ctrl’, where lower numbers indicate stronger hits in the matrix.

DLD-1 (Colon) = assay: WST-1 anticancer cell proliferation assay, DLD-1; format: cell-based; conditions: 72 hours
Procedure: (§3) Bioactivity of the above-described compounds has been verified by an anticancer cell proliferation assay using the WST-1 (4-[3-(4-iodophenyl)-2-(4-nitrophenyl)-2H-5-tetrazolio]-1, 3-benzene disulfonate) colorimetric assay by Roche Life Sciences®. Anticancer activity was tested against several standard cancer cell lines including brain, breast, Kaposi sarcoma, leukemia, lung, melanoma, tenosynovial giant cell tumor, ovarian, pancreatic, colon and prostate cancer. Cells were trypsinized and plated into 96 well plates in 50 μl of media and incubated overnight. The next day approximately 18 hours after plating, 50 μl of media containing the required flavonoid-based pharmaceutical composition was added per well. Cells were plated at a density so that 72 hours post drug addition, the cells will be in log phase (500)-2000 cells/well). The compounds and extracts were solubilized in Dimethyl sulfoxide (DMSO). The cells are allowed to proliferate for 72 hours 37° C. in humidified atmosphere of 5% CO2. The experiment is terminated using WST-1 (Roche®) 10 μl per well and absorbance is read at 450 nm %690 nm. The effect of drugs on growth is assessed as percent of cell viability. The IC50 values were determined from the extract dose versus control growth curves using Graphpad Prism® software. All experiments were carried out in duplicate and the mean results determined.

RL (Lymphoma) = assay: WST-1 anticancer cell proliferation assay, RL; format: cell-based; conditions: 72 hours
Procedure: as §3

PDGFRa(T674I) = target: T2, PDGFRa(T674I) (Homo sapiens, UniProt P16234, T674I); assay: Kinase competition binding assay, PDGFRa(T674I); conditions: Table 1 kinase panel
T2 construct: catalytic domain constructs for large multi-domain kinases; T7 phage fusion (most assays) or DNA tag for qPCR (HEK-293-made kinases); made in house
T2 sequence (P16234 593-954 T674I limits assumed): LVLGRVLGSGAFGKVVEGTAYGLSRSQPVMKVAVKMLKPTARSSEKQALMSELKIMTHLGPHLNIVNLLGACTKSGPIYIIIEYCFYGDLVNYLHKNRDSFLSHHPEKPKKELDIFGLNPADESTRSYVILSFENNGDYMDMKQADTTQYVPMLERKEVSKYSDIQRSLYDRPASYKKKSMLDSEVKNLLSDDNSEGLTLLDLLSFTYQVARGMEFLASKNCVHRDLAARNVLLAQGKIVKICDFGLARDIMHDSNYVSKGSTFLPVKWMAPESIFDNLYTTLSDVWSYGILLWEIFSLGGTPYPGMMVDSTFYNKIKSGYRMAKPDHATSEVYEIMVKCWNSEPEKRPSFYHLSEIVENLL
Procedure: as §1, §2

BRD2 = BRD2 (Homo sapiens, UniProt P25440); assay: Inhibition of bromodomains, BRD2; format: binding; conditions: Table 3 Bromodomain
Sequence of BRD2 (P25440 whole entry): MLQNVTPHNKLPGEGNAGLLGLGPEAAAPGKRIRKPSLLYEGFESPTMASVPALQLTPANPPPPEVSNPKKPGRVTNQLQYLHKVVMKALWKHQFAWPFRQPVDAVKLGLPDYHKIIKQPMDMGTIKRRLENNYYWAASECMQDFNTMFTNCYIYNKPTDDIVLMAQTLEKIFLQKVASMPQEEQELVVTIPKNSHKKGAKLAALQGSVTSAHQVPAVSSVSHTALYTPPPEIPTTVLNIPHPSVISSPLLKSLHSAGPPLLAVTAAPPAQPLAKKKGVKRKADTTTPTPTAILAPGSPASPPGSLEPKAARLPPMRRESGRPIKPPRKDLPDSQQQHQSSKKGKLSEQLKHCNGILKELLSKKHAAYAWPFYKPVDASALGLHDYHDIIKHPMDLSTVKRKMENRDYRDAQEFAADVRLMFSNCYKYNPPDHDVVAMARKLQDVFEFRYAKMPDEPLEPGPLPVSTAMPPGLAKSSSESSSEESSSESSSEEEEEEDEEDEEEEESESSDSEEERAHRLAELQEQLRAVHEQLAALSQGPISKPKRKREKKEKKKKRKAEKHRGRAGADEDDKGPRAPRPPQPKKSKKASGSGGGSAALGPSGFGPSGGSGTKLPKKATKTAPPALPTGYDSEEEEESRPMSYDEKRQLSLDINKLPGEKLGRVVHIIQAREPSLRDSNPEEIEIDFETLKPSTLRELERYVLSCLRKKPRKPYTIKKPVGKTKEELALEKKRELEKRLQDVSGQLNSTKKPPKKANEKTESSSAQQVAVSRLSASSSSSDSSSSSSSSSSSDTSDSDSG
Source text: (§4) Inhibition of Sirtuins, Matrix Metalloproteinase, Bromodomains was Also Confirmed Using Standard Protocols and the Results are Present in Table 2.

BRD3 = BRD3 (Homo sapiens, UniProt Q15059); assay: Inhibition of bromodomains, BRD3; format: binding; conditions: Table 3 Bromodomain
Sequence of BRD3 (Q15059 whole entry): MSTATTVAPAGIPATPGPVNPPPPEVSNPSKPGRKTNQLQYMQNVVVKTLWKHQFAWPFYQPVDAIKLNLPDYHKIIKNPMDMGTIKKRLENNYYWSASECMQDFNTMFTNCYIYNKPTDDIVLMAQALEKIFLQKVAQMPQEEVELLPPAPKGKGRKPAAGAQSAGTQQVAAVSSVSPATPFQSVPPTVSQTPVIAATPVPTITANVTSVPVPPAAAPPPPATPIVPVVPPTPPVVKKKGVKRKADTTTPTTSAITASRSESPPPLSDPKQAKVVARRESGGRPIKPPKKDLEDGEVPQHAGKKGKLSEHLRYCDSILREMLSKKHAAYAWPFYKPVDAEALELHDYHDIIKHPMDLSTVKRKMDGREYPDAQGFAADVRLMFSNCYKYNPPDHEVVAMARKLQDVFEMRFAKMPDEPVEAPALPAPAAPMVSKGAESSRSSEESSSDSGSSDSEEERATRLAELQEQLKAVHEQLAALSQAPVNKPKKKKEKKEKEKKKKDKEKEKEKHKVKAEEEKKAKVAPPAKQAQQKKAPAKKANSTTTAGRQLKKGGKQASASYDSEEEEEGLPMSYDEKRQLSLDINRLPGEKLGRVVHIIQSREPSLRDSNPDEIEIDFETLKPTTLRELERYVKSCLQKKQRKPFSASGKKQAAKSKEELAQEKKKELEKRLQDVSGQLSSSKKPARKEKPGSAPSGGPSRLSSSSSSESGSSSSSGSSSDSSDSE
Source text: as §4

BRD4 = BRD4 (Homo sapiens, UniProt O60885); assay: Inhibition of bromodomains, BRD4; format: binding; conditions: Table 3 Bromodomain
Source text: as §4

HC-1 (Leukemia) = assay: WST-1 anticancer cell proliferation assay, HC-1; format: cell-based; conditions: 72 hours
Procedure: as §3

HeLa (cervical) = assay: WST-1 anticancer cell proliferation assay, HeLa; format: cell-based; conditions: 72 hours
Procedure: as §3

MOLT-4 (Leukemia) = assay: WST-1 anticancer cell proliferation assay, MOLT-4; format: cell-based; conditions: 72 hours
Procedure: as §3

U2-OS (Bone) = assay: WST-1 anticancer cell proliferation assay, U2-OS; format: cell-based; conditions: 72 hours
Procedure: as §3

Row | Structure (SMILES) | IC50 (FLT3(D835V)) [nM] | IC50 (DLD-1 (Colon)) [µM] | IC50 (RL (Lymphoma)) [µM] | IC50 (PDGFRa(T674I)) [nM] | IC50 (BRD2) [µM] | IC50 (BRD3) [µM] | IC50 (BRD4) [µM] | IC50 (HC-1 (Leukemia)) [µM] | IC50 (HeLa (cervical)) [µM] | IC50 (MOLT-4 (Leukemia)) [µM] | IC50 (U2-OS (Bone)) [µM]
1 | COc1cc(-c2cc(=O)c3c(O)c(C/C=C(\C)CCC=C(C)C)c(O)cc3o2)ccc1O [FBL-03A] | 220 | 15 | 5.9 |  |  |  |  |  |  |  | 
2 | COc1cc(-c2cc(=O)c3c(O)cc(O)c(CC=C(C)C)c3o2)ccc1O [FBL-03G] | < 1000 |  |  | 2360 | 12 | 8.69 | 6.14 | 5 | 2.53 | 20 | 8.7
3 | COc1ccc(-c2cc(=O)c3c(O)c(C/C=C(\C)CCC=C(C)C)c(O)cc3o2)cc1OC [FBL-03D] | > 30000 |  |  | > 30000 |  |  |  |  |  |  | 
4 | COc1cc(-c2cc(=O)c3c(O)c(CC=C(C)C)c(O)cc3o2)ccc1O [FBL-03B] | < 1000 |  |  | 0.92 | 9.52 | 7.05 | 10.4 | 29.7 | 10.4 | 13.2 | 19.4
5 | COc1cc(-c2cc(=O)c3c(O)cc(O)c(C/C=C(\C)CCC=C(C)C)c3o2)ccc1O [FBL-03C] | 190 | 13 | 12 | > 1000 |  |  |  |  |  |  | 
